For experiment [1], the system named is ES cell-derived cardiomyocytes. Nature of the experiment: Interference of compounds with ET-1- or PE-induced hypertrophy of ES cell-derived cardiomyocytes (ANF/BNP RT-PCR).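 For all read-outs here: mRNA levels of ANF and BNP quantified from RT-PCR products by densitometry of bands after agarose gel separation.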 It counts as cell-based, mouse. The following applies: for ANF induction (up-regulation) upon ET-1 stimulation, in words / BNP induction (up-regulation) upon ET-1 stimulation, in words: 100 nM ET-1, 24 h; for ANF induction (up-regulation) upon ET-1 stimulation, in words / BNP induction (up-regulation) upon ET-1 stimulation, in words / ANF induction (up-regulation) upon PE stimulation, in words / BNP induction (up-regulation) upon PE stimulation, in words: compound concentration as in Table 1, summary of Table 1; for ANF induction (up-regulation) upon PE stimulation, in words / BNP induction (up-regulation) upon PE stimulation, in words: 100 μM PE.
Description: PCR products were separated by agarose gel electrophoresis and band intensity was analysed using the BioDocAnalyze system (Biometra).
ES cell-derived cardiomyocytes were stimulated with either 100 nM endothelin-1 (ET-1) or 100 μM phenylephrine (PE) in the presence of the compounds indicated. After 24 hours expression of ANF and BNP mRNA was analyzed by RT-PCR.

For experiment [2], the system named is ES cell-derived cardiomyocytes. Nature of the experiment: Induction of ANF and BNP expression by hypertrophic stimuli (RT-PCR, FIG. 3). It counts as cell-based, mouse. The following applies: suspension culture; 24 h serum starvation, then 24 h stimulation; endothelin-1 100 nM, phenylephrine 200 μM, Angiotensin II 100 nM. As for the experimental part:
Cardiomyocytes differentiated from ES cells were serum-starved for 24 h and subsequently stimulated by endothelin-1 (100 nM; lanes 1, 6, 11), phenylephrine (200 μM; lanes 2, 7, […]) or Angiotensin II (100 nM; lanes 3, 8, 13). Non-stimulated controls were cultured in serum-free medium (lanes 4, 9, 14) or serum-supplemented medium (lanes 5, 10, 15). Subsequently, RNA was extracted and cDNA was synthesized using random hexamer priming. ANF, BNP, and gapdh cDNAs were amplified and PCR products were analyzed by agarose gel electrophoresis. M, size marker. Amplification parameters were as follows. cDNAs were amplified for 32 (ANF and BNP) or 26 (gapdh) PCR cycles consisting each of 1 min at 94° C., 1 min at 56° C., and 1 min at 72° C. The following primers were used: ANF-5′, 5′-[…]-3′ (SEQ ID NO: 14); ANF-3′, 5′-[…]-3′ (SEQ ID NO: 15); BNP-5′, 5′-[…]-3′ (SEQ ID NO: 18); BNP-3′, 5′-[…]-3′ (SEQ ID NO: 19); gapdh-5′, 5′-[…]-3′ (SEQ ID NO: 16); gapdh-3′ 5′-[…]-3′ (SEQ ID NO: 17). Expected PCR product sizes were 468 bp (ANF), 242 bp (BNP), and 349 bp (gapdh).
In a further experiment, the possible induction of an early embryonic gene program upon stimulation by endohelin-1, angiotensin II, or phenylephrine was analysed. To this end, puromycin resistant ES cell-derived cardiomyocytes were obtained as described above; however, after the final […] in puromycin containing medium cells were not transferred to a feeder layer but were kept in suspension culture. Following serum-starvation for 24 h by cultivation in Medium 199, cells were stimulated for 24 h by addition of endothelin-1, phenyleprine, or angiotensin II (Sigma). RNA was extracted and reverse transcribed using standard methods.
Expression of ANF and brain natriuretic peptide (BNP) was analysed by PCR amplification of the respective cDNAs.

The subject of experiment [3] is ES cell-derived cardiomyocytes. Nature of the experiment: Size of ES cell-derived cardiomyocytes upon hypertrophic stimulation (microscopy, FIG. 1). The conditions noted are these: 24 h serum starvation, then 24 h stimulation; endothelin-1 100 nM or phenylephrine 200 μM; on inactivated mouse embryonic fibroblasts. It counts as cell-based. As for the experimental part:
(§1) Hypertrophic cardiomyocytes in that cell culture system are characterized by increased size, increased protein synthesis, increase in sarcomeric assembly and reexpression of a fetal gene program, e.g. enhanced expression of the ANF (atrial natriuretic factor) gene. In order to test if embryonic stem (ES) cell-derived cardiomyocytes display similar features upon stimulation, the following experiments were performed. Green fluorescent cardiomyocytes were generated in accordance with the teachings of in international applications WO99/01552 and WO02/051987 in the following way. ES cells (line D3, ATCC, CRL 1934) that were transfected with a bi-cistronic vector containing the genes for green fluorescent protein (GFP) and puromycin-resistance under the transcriptional control of the […] heavy chain promoter (see WO02/051987), were induced to form aggregates (embryonic bodies, EBs) in the absence of LIF either according to the method in WO99/01552 and WO2/051987, respectively, or as described in European patent application no. 03015401.7. EBs were cultured for 9 days in IMDM (Invitrogen) supplemented with 20% FCS (Invitrogen, batch controlled) at 37° C., 5% CO2 and 95% humidity on 10 cm bacteriological dishes (Greiner). Subsequently, puromycin (Sigma, 2.5 μg/ml) was added to the cell culture medium and cells were cultured for further 10 days. […]

Experiment [4] has as its system ES cell-derived cardiomyocytes. Nature of the experiment: Sarcomeric organization, immunostaining for sarcomeric alpha-actinin (FIG. 2). Type of experiment: cell-based, mouse. The conditions noted are these: 24 h serum starvation, then 24 h stimulation, endothelin-1 100 nM or phenylephrine 200 μM. The method, then: as §1
The mark [5] stands for this setting: compound 100 nM, stimulus 100 nM ET-1, 24 h, relative to ET-1-stimulated sample without test compound (=100%).
Where [6] appears, read: compound 100 nM, stimulus 100 μM PE, 24 h, relative to PE-stimulated sample without test compound (=100%).
The mark [7] stands for this setting: compound 1 μM, stimulus 100 nM ET-1, 24 h, relative to ET-1-stimulated sample without test compound (=100%).
[8] abbreviates: compound 1 μM, stimulus 100 μM PE, 24 h, relative to PE-stimulated sample without test compound (=100%).
The mark [9] stands for this setting: compound 10 μM, stimulus 100 nM ET-1, 24 h, relative to ET-1-stimulated sample without test compound (=100%).
Where [10] appears, read: compound 10 μM, stimulus 100 μM PE, 24 h, relative to PE-stimulated sample without test compound (=100%).

Non-standard residues stand in square brackets, D forms with d. Residues, ends and D or L forms follow the SMILES beside them. No end group written: not given here.

Consider `COC(=O)C1=C(C)NC(C)=C(C(=O)OC)C1c1ccccc1[N+](=O)[O-]` [Nifedipine], for which the ANF expression is 100% (no effect) in experiment [1] (setting [5]) and 20% in experiment [1] (setting [6]). For the same compound, the figures for the BNP expression in experiment [1] (setting [5]) and in experiment [1] (setting [6]) were 10% and 20%, respectively.

Consider `CN[C@@H]1C[C@H]2O[C@@](C)([C@@H]1OC)n1c3ccccc3c3c4c(c5c6ccccc6n2c5c31)C(=O)NC4` [Staurosporine], for which, in experiment [1], the “ANF induction (up-regulation) upon ET-1 stimulation, in words” value was “inhibited” and the “BNP induction (up-regulation) upon ET-1 stimulation, in words” value is “inhibited”. In addition, in experiment [1] (24 h), the “ANF induction (up-regulation) upon PE stimulation, in words” value is on record as “inhibited” and the “BNP induction (up-regulation) upon PE stimulation, in words” value is listed as “inhibited”. In experiment [1] (setting [5]), the ANF expression is 30% and the BNP expression was 30%. In experiment [1] (setting [6]), this compound displayed an ANF expression of 30% and a BNP expression of 30%.

As to “Angiotensin II [hypertrophic agonist (Sigma) used as stimulus]”, in experiment [2], the “ANF expression compared to control” value is on record as “modest increase” and the “BNP expression compared to control” value was “modest increase”.

As for “endothelin-1 (CSCSSLMDKECVYFCHLDIIW; ends and bridges not checked; cysteine pairing not given here; UniProt P05305 53-73, looked up) [hypertrophic agonist (Sigma) used as stimulus]”, in experiment [3], the “cardiomyocyte size upon stimulation” value was “increase in size”. Further, the “sarcomeric organization upon stimulation” value in experiment [4] was “increase in sarcomeric organization”. For the same compound, in experiment [2], the “ANF expression compared to control” value was “increased” and the “BNP expression compared to control” value is given as “increased”.

With `CC(C)C[C@@H]1NC(=O)[C@@H](C(C)C)NC(=O)[C@@H]2CCCN2C(=O)[C@@H](CC(=O)O)NC(=O)[C@@H](Cc2c[nH]c3ccccc23)NC1=O` [BQ123] (cyclo(L[dW][dD]P[dV])), in experiment [1], the “ANF induction (up-regulation) upon ET-1 stimulation, in words” value is recorded as “inhibit” and the “BNP induction (up-regulation) upon ET-1 stimulation, in words” value was “inhibit”. In addition, the “ANF induction (up-regulation) upon PE stimulation, in words” value in experiment [1] (24 h) is “not”. Besides, in experiment [1] (setting [7]), the ANF expression is 50% and the BNP expression was determined as 60%. In experiment [1] (setting [8]), the ANF expression is given as 100% (no effect) and the BNP expression was 100% (no effect).

Consider `CCCC[C@@H](NC(=O)[C@@H](Cc1cn(C(=O)OC)c2ccccc12)NC(=O)[C@H](CC(C)(C)C)NC(=O)N1[C@H](C)CCC[C@@H]1C)C(=O)O` [BQ788], for which, in experiment [1], the “ANF induction (up-regulation) upon ET-1 stimulation, in words” value was “inhibit” and the “BNP induction (up-regulation) upon ET-1 stimulation, in words” value is given as “inhibit”. In experiment [1] (24 h), the “ANF induction (up-regulation) upon PE stimulation, in words” value is on record as “not”. In experiment [1] (setting [7]), this compound had an ANF expression of 70% and a BNP expression of 70%. In experiment [1] (setting [8]), the ANF expression is listed as 100% (no effect) and the BNP expression is reported as 100% (no effect).

Turning to `COc1ccc(CCN(C)CCCC(C#N)(c2ccc(OC)c(OC)c2)C(C)C)cc1OC` (stereo not drawn) [Verapamil], the ANF expression in experiment [1] (setting [7]) is on record as 100% (no effect); in experiment [1] (setting [8]) it was 40%. The BNP expression was 30% in experiment [1] (setting [7]) and 20% in experiment [1] (setting [8]).

Take `CNC[C@H](O)c1cccc(O)c1` [phenylephrine]: the “cardiomyocyte size upon stimulation” value in experiment [3] was “increase in size”. In experiment [4], the “sarcomeric organization upon stimulation” value is “increase in sarcomeric organization”. In experiment [2], the “ANF expression compared to control” value was “increased” and the “BNP expression compared to control” value is listed as “increased”.

On to `COc1cc2nc(N3CCN(C(=O)c4ccco4)CC3)nc(N)c2cc1OC` [Prazosin], for which, in experiment [1], the “ANF induction (up-regulation) upon ET-1 stimulation, in words” value is listed as “no inhibition” and the “BNP induction (up-regulation) upon ET-1 stimulation, in words” value is “no inhibition”. Moreover, in experiment [1] (24 h), the “ANF induction (up-regulation) upon PE stimulation, in words” value is reported as “inhibition” and the “BNP induction (up-regulation) upon PE stimulation, in words” value is reported as “inhibition”. In addition, in experiment [1] (setting [9]), the ANF expression is 100% (no effect) and the BNP expression is listed as 100% (no effect). For the same compound, in experiment [1] (setting [10]), the ANF expression came out at 40% and the BNP expression is on record as 40%.
